Test results published in US20150201650A1, “DIETARY SUPPLEMENT” (Vetafarm Europe Ltd, priority 2009, published 2015).
Several values for one entry are separate records, joined by “and”; a condition that tells them apart may be missing. Equal values may be shown once. Entries after “also recorded” stand apart in the source; their conditions may differ.

Tested on: horses demonstrating agitated behaviour
Experiment: Feeding trial of calcium supplements in horses demonstrating agitated behaviour, marked by the feeder
Type: in vivo, horse
Settings: for average mark for horses: mean of the feeders' marks (1 bad, 5 good); for feeder's general comment on the horse's behaviour during the trial / mark provided by the feeder, based on the effect noted in the behaviour of the horse: single horse; for mark provided by the feeder, based on the effect noted in the behaviour of the horse: mark between 1 and 5 (bad is 1, good is 5)
Description: The horses were given doses of calcium chelate calculated to provide a loading dose of 12 grams of calcium per day for five days each week for a period of a month. In the calcium carbonate subject the feed dose was 24 or 48 grams of calcium per day. The feeder provided a mark between 1 and 5 where bad is 1 and good is 5. The mark allocated was based on the effect noted in the behaviour of the horse. The feeder also provided general comments on the horses' behaviour during the trial.

[1] = 60 grams of calcium carbonate only
[2] = 120 grams of calcium carbonate only
[3] = 12 grams of calcium per day, five days each week for a month
[4] = loading dose of 12 grams of calcium per day, five days each week for a month, supplement of the calcium chelate only

Compound | average mark for horses (feed dose 24 or 48 grams of calcium per day as calcium carbonate) | feeder's general comment on the horse's behaviour during the trial [1] | feeder's general comment on the horse's behaviour during the trial [2] | mark provided by the feeder, based on the effect noted in the behaviour of the horse [1] | mark provided by the feeder, based on the effect noted in the behaviour of the horse [2] | average mark for horses [3] | feeder's general comment on the horse's behaviour during the trial [3] | mark provided by the feeder, based on the effect noted in the behaviour of the horse [4]
O=C([O-])[O-].[Ca+2] [calcium carbonate, reference compound] | 1.67 | not much difference in the behaviour; also recorded: No significant change | small improvement in the horse's behaviour but not sufficient for the horse to be ridden | 1.5 and 1 | 2.5 | – | – | –
O=C([O-])CC(O)(CC(=O)[O-])C(=O)[O-].O=C([O-])CC(O)(CC(=O)[O-])C(=O)[O-].[Ca+2].[Ca+2].[Ca+2] [calcium citrate] | – | – | – | – | – | 4.6 | a lot calmer and rational; also recorded: much calmer and friendlier; also recorded: very good response; also recorded: much calmer generally | 4.5 and 4 and 5
calcium gluconate | – | – | – | – | – | 3.33 | calmed down without losing any energy; also recorded: did not notice a difference in the horses' behaviour for the first couple of weeks; also recorded: within two weeks the horse was completely calm | 4.5 and 2.5 and 3
